Structures are written as SMILES.

The target in this assay is T1, FXR (Homo sapiens, UniProt Q96RI1).
T1 construct: expressed in transfected cells; host or cells: CV-1 cells
T1 sequence (Q96RI1 1-486): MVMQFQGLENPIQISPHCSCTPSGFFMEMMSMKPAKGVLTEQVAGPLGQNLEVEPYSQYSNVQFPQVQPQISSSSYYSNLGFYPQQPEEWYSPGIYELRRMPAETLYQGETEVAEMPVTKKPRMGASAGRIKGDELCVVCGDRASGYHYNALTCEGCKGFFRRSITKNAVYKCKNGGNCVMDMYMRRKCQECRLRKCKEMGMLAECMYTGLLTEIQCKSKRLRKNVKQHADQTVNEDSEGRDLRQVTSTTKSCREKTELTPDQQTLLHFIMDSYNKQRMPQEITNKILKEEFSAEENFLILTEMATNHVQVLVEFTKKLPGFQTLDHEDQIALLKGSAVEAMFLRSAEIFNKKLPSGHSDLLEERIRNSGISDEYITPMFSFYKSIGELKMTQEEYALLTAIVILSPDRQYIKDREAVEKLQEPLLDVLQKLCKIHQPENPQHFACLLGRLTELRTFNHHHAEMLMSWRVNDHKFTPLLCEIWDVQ
T1 sequence (P19793 1-462 partner): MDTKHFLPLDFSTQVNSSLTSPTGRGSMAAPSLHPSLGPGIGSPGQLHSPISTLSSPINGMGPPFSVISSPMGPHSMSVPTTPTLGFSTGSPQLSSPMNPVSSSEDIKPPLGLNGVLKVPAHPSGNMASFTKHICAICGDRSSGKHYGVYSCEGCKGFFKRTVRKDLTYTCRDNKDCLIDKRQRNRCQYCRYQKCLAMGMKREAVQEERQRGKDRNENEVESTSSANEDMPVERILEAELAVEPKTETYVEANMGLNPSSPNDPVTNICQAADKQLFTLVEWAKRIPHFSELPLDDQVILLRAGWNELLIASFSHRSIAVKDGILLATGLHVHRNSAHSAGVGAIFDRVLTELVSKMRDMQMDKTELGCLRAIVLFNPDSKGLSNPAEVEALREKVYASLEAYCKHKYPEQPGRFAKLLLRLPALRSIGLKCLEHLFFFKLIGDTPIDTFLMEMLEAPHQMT
In words: In Vitro FXR Assay (TK): TK-ECRE-luc reporter in transfected CV-1 cells. It is filed as cell-based. The settings on record: CV-1 cells transfected with hFXR, hRXR, 18 h incubation, luminescence. The procedure:
Example B-2: In Vitro FXR Assay (TK)
CV-1 cells were seeded at a density of 2,000,000 cells in a T175 flask with DMEM+10% charcoal double-stripped FBS and incubated at 37° C. in 5% CO2 for 18 h (O/N).
After 18 h of incubation, the medium in the T175 flask was changed with fresh DMEM+10% charcoal super-stripped serum. In a polypropylene tube, 2500 μL OptiMEM (Life Technologies, Cat #31985-062) was combined with expression plasmids for hFXR, hRXR, TK-ECRE-luc and pCMX-YFP. The tube was then briefly vortexed and incubated at room temperature for 5 minutes. Transfection reagent (X-tremeGENE HP from Roche, Cat #06 366 236 001) was added to the OptiMEM/plasmid mixture vortexed and incubated at room temperature for 20 minutes. Following incubation, the transfection reagent/DNA mixture complex was added to cells in the T175 flask and the cells were incubated at 37° C. in 5% CO2 for 18 h (O/N).
Compounds were serially diluted in DMSO and added to transfected CV-1 cells. The cells were then incubated for 18 hrs. The next day cells were lysed and examined for luminescence.
With `COC(=O)/C=C/c1cccc(N(Cc2ccc(-c3cccc(CO)c3)cc2)C(=O)C2CCCCC2)c1` [62.6, (E)-Methyl 3-(3-(N-((3′-(hydroxymethyl)-[1,1′-biphenyl]-4-yl)methyl)cyclohexanecarboxamido)phenyl) acrylate], the EC50 fell in the range of 1000 to 10000 nM. Then `COC(=O)/C=C/c1cccc(N(Cc2ccc(-c3cnc(N(C)C)cn3)cc2)C(=O)C2CCCCC2)c1` [75.4, (E)-Methyl 3-(3-(N-(4-(5-(dimethylamino)pyrazin-2-yl)benzyl)cyclohexanecarboxamido)phenyl) acrylate], with 1000 to 10000 nM. Then `COC(=O)/C=C/c1cccc(N(Cc2ccc(NCc3ccccc3)cc2)C(=O)C2CCCCC2)c1` [compound 102, (E)-Methyl 3-(3-(N-(4-(benzylamino)benzyl)cyclohexane-carboxamido)phenyl)acrylate], with 1000 to 10000 nM; and `COC(=O)/C=C/c1cccc(N(Cc2ccc(-c3ccc(S(C)(=O)=O)c(F)c3)cc2)C(=O)C2CCCCC2)c1` [75.7, (E)-Methyl 3-(3-(N-((3′-fluoro-4′-(methylsulfonyl)-[1,1′-biphenyl]-4-yl)methyl)cyclohexanecarboxamido)phenyl) acrylate], with above 10000 nM.

As to `CN(C)CCOC(=O)/C=C/c1cccc(N(Cc2ccc(-c3ccc(N(C)C)cc3)cc2)C(=O)C2CCCCC2)c1` [86.4, (E)-2-(Dimethylamino)ethyl 3-(3-(N-((4′-(dimethylamino)-[1,1′-biphenyl]-4-yl)methyl)cyclohexanecarboxamido)phenyl) acrylate], the EC50 was above 10000 nM. Take `COC(=O)/C=C/c1cccc(N(Cc2ccc(-c3ccc(N(C)C)cc3)cc2)C(=O)C2COCCO2)c1` (stereo not drawn) [17.2, (E)-Methyl 3-(3-(N-((4′-(dimethylamino)-[1,1′-biphenyl]-4-yl)methyl)-1,4-dioxane-2-carboxamido)phenyl)acrylate]: the concentration giving a half-maximal response (EC50) lay within 1000 to 10000 nM.

Turning to `COC(=O)/C=C/c1cccc(N(Cc2ccc(-c3ccc4c(c3)nnn4C)cc2)C(=O)C2CCCCC2)c1` [75.1, (E)-Methyl 3-(3-(N-(4-(1-methyl-1H-benzo[d][1,2,3]triazol-5-yl)benzyl)cyclohexanecarboxamido)phenyl) acrylate], the EC50 was in the range of 1000 to 10000 nM. Under `COC(=O)/C=C/c1cccc(N(Cc2ccc(-c3ccc(N(C)C)cc3)cc2)C(=O)[C@H]2CC[C@H](NC(=O)OC(C)(C)C)CC2)c1` [compound 96, (E)-Methyl 3-(3-(trans-4-((tert-butoxycarbonyl)amino)-N-((4′-(dimethylamino)-[1,1′-biphenyl]-4-yl)methyl)cyclohexanecarboxamido)phenyl) acrylate] stands at most 1000 nM; under `COC(=O)/C=C/c1cccc(N(Cc2ccc(-c3ccc(N4CCC4)cc3)cc2)C(=O)C2CCCCC2)c1` [75.2, (E)-Methyl 3-(3-(N-((4′-(azetidin-1-yl)-[1,1′-biphenyl]-4-yl)methyl)cyclohexanecarboxamido)phenyl) acrylate], 1000 to 10000 nM. The compound `COC(=O)/C=C/c1cc(Cl)cc(N(Cc2ccc(-c3ccc(N(C)C)cc3)cc2)C(=O)C2CCCCC2)c1` [86.10, (E)-Methyl 3-(3-chloro-5-(N-((4′-(dimethylamino)-[1,1′-biphenyl]-4-yl)methyl)cyclohexanecarboxamido)phenyl) acrylate] had an EC50 of at most 1000 nM. Under `COC(=O)/C=C/c1cccc(N(Cc2ccc(-c3ccc(N(C)C)cc3)cc2)C(=O)C2CCCCO2)c1` (stereo not drawn) [17.1, (E)-Methyl 3-(3-(N-((4′-(dimethylamino)-[1,1′-biphenyl]-4-yl)methyl)tetrahydro-2H-pyran-2-carboxamido)phenyl)acrylate] stands at most 1000 nM; under `COC(=O)/C=C/c1cccc(N(Cc2ccc(-c3ccc(N(C)C)cc3)cc2)C(=O)[C@H]2CC[C@H](C(=O)O)CC2)c1` [13.16, trans-4-(((4′-(Dimethylamino)-[1,1′-biphenyl]-4-yl)methyl)(3-((E)-3-methoxy-3-oxoprop-1-en-1-yl)phenyl)carbamoyl) cyclohexanecarboxylic acid], at most 1000 nM.

Usually EC50 stands for the concentration needed to bring the measured effect to its halfway point. High values mean a need for much substance, low ones an effect from little substance.

The record behind these values is patent US10626081B2, “Farnesoid X receptor agonists and uses thereof” (Metacrine, Inc., priority 2015, dated 2020).
